This is an account of results in ChEMBL document CHEMBL4184305, “Inhibition of histone lysine methyltransferases G9a and GLP by ejection of structural Zn(II)” (Bioorg Med Chem Lett, 2018).

In assay [1] the target is T1, Histone-lysine N-methyltransferase EHMT2 (Homo sapiens) (UniProt Q96KQ7).
T1 sequence (whole entry): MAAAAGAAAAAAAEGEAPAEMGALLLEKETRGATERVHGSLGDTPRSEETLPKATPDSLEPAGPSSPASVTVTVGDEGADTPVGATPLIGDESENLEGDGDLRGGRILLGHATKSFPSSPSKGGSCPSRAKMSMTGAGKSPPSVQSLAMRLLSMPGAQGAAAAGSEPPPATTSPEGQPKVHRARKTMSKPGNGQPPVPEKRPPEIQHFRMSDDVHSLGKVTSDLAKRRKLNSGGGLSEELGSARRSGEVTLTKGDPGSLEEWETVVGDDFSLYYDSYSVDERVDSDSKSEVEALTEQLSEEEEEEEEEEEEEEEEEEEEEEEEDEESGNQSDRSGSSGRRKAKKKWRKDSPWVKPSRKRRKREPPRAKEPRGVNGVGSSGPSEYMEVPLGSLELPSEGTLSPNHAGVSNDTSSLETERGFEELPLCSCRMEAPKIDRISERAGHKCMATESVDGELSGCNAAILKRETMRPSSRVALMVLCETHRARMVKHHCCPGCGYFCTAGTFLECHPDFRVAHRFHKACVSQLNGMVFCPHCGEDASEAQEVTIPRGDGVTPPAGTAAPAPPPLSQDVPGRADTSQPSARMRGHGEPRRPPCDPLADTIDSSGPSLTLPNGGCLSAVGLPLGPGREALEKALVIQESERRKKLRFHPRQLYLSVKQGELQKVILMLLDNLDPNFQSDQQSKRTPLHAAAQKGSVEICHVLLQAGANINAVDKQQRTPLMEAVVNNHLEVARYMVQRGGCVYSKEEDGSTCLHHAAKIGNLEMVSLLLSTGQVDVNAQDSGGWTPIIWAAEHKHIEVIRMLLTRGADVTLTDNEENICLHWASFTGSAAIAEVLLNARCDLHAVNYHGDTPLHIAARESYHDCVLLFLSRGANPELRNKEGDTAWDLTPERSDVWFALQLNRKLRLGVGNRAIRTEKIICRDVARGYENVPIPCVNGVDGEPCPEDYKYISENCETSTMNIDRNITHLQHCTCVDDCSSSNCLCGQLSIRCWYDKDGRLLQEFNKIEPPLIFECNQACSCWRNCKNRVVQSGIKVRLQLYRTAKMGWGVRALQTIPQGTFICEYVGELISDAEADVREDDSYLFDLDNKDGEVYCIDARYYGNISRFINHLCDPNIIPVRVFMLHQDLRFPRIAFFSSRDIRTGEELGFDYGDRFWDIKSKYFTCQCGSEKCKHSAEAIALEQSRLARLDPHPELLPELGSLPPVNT
The assay is described as follows: Inhibition of wild type recombinant human histone lysine methyltransferase G9a (913 to 1193 residues) expressed in Escherichia coli Rosetta BL21 DE3 PlysS assessed as zinc ions ejection from Cys4-Zn finger at 2.5 to 100 uM after 500 to 3500 secs by FluoZin-3 based fluorescence assay.

Assay [2] has as its target T2, Histone-lysine N-methyltransferase EHMT1 (Homo sapiens) (UniProt Q9H9B1).
T2 sequence (whole entry): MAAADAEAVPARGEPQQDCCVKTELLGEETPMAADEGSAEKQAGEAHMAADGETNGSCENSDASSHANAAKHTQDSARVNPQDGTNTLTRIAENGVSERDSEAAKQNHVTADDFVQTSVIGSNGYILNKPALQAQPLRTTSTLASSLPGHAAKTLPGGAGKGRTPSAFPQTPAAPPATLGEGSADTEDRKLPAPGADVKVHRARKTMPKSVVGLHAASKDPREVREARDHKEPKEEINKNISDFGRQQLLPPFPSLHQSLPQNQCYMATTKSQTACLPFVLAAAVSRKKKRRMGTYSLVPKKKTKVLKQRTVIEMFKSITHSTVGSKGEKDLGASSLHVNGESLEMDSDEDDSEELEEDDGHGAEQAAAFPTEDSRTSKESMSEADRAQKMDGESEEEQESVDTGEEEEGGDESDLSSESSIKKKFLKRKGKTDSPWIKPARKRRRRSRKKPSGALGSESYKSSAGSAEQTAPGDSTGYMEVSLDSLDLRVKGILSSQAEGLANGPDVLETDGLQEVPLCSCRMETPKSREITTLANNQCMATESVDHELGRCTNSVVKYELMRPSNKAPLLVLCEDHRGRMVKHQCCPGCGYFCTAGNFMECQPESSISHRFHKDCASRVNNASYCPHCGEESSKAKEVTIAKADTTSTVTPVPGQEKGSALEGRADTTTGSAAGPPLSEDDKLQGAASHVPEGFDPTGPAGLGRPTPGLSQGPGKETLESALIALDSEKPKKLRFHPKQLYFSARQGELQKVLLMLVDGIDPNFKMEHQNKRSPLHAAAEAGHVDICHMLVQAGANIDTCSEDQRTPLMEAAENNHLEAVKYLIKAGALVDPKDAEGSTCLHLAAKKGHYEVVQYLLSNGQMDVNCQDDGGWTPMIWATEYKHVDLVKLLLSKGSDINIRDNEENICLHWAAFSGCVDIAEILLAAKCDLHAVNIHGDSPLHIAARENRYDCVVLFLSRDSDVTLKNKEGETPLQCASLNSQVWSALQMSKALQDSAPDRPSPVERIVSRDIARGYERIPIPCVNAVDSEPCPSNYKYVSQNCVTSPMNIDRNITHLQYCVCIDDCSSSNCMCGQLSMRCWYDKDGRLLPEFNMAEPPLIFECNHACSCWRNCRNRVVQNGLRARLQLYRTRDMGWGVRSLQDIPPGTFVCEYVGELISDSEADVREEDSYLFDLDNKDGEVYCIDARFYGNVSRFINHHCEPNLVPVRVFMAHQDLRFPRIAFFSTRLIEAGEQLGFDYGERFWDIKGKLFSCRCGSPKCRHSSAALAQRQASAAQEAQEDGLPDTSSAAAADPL
The assay can be described thus: Inhibition of wild type recombinant human histone lysine methyltransferase GLP (951 to 1235 residues) expressed in Escherichia coli Rosetta BL21 DE3 PlysS assessed as zinc ions ejection from Cys4-Zn finger at 2.5 to 100 uM after 500 to 3500 secs by FluoZin-3 based fluorescence assay.

Assay [3] addresses T2, Histone-lysine N-methyltransferase EHMT1 (Homo sapiens). The assay can be described thus: Inhibition of wild type recombinant human histone lysine methyltransferase GLP (951 to 1235 residues) expressed in Escherichia coli Rosetta BL21 DE3 PlysS assessed as zinc ions ejection from 3 types of Cys9-type Zn fingers at >25 uM after 1 hr by circular dichroism analysis. (Circular dichroism is widely used to follow secondary structure.)

Assay [4] has the same target. The assay can be described thus: Inhibition of wild type recombinant human histone lysine methyltransferase GLP (951 to 1235 residues) expressed in Escherichia coli Rosetta BL21 DE3 PlysS assessed as zinc ions ejection from Cys4-Zn finger at 2.5 to 100 uM measured up to 1 min by FluoZin-3 based fluorescence assay.
Assay [5] has the same target. The assay can be described thus: Inhibition of wild type recombinant human histone lysine methyltransferase GLP (951 to 1235 residues) expressed in Escherichia coli Rosetta BL21 DE3 PlysS assessed as zinc ions ejection from Cys4-Zn finger at >25 uM after 1 hr by circular dichroism analysis.

Active and inactive are the calls of the source. The rule behind the calls is not given here.

With `CCN(CC)C(=S)SSC(=S)N(CC)CC`, the inhibition result in assay [1] and in assay [2] was “Active” throughout.
As for `O=c1c2ccccc2[se]n1-c1ccccc1` [EBSELEN], the inhibition result in assay [3], in assay [4] and in assay [5] was “Active” in each case.
